Earlier results, collected in patent publication US20040241252A1, “Pharmaceutical compositions for oral administration comprising lithium carbonate, processes of making the same, and methods of administering the same” (priority 2003, published 2004).

| SMILES | mean absorption half-time (single liquefied dose, volunteers) [h] | time to complete absorption (oral, gastrointestinal tract) | fraction of a single dose eliminated in the urine (single dose) |
| --- | --- | --- | --- |
| [Cl-].[Li+] [lithium chloride] | 0.15 | – | – |
| [Li+] [Li^+, lithium ion] | – | about 8 hours | Ninety-five |
